Assay results published in PMC10584170, “Machine learning-based phenotypic imaging to characterise the targetable biology of Plasmodium falciparum male gametocytes for the development of transmission-blocking antimalarials” (PLOS Pathogens, 2023).
Read-outs that look alike come from different tables or passages of the source.

Tests used:
[1] = tested on: P. falciparum male gametocytes; assay: P. falciparum Dual Gamete Formation Assay (PfDGFA), male readout (exflagellation); type: cell-based, Plasmodium falciparum NF54; details: for Selectivity Ratio M: HepG2 Tox50 versus male IC50; for IC50: PfDGFA, 24 h incubation with gametocytes before induction, exflagellation readout, read-out: Male IC50
Experimental: (§1) P. falciparum NF54 (originally isolated from an imported malaria case in the Netherlands in the 1980s; BEI Resources, cat. No. MRA-1000) strain asexual parasites were maintained between 0.3–5% parasitaemia by regular passage in complete culture medium (RPMI supplemented with 25 mM HEPES, 50 μg ml^−1 hypoxanthine, 4.8 g l^−1 NaHCO3, 2mM L-glutamine, 5% pooled type AB serum, 0.5% Albumax II (Gibco)) at 4% haematocrit in washed whole blood (National Blood and Transfusion Service or Centro de Transfusiones de la Comunidad de Madrid CTCM) under a 1% O2/3% CO2/96% N2 environment. Gametocytes were induced by seeding culture flasks at 2% parasitaemia/4% haematocrit and subjecting them to daily medium changes for 14 days whilst maintaining a temperature of 37°C at all times. On Day 14, the maturity of gametocytes was assessed by quantifying male gametogenesis (exflagellation). A 20 μl sample of gametocyte culture was mixed with equal volume of ookinete medium (complete culture medium supplemented with 0.1 μM xanthurenic acid) at room temperature and transferred to a haemocytometer. After 20 min at room temperature, exflagellation was accurately quantified as described in Delves et al. 2016 [17].
(§2) The Pf DGFA was performed as described in Delves et al. 2016 [17]. […] Plates were then incubated for 24 h at 37°C in a humidified box under a 1% O2/3% CO2/96% N2 gas mix. Gametogenesis was triggered by addition of 10 μl per well of ookinete medium + 0.27 μg ml^-1 Cy3-labelled anti-Pfs25 antibody. Plates were incubated on a metal block at 4°C for 4 min to ensure even cooling, then 28°C for a further 4 min. Exflagellation was recorded by capturing 10 frames over 1 s under brightfield illumination using a x4 objective with a 1.5x zoom (effectively x6) attached to an automated Nikon Ti fluorescence microscope. After recording exflagellation, plates were incubated for a further 24 h in the dark at 28°C to ensure maximal expression of Pfs25 by female gametes. The plates were then returned to the microscope and female gametes imaged at x6 using fluorescence microscopy.
(§3) Exflagellation centres and female gametes were quantified using custom image analysis pipelines developed within ICY Bioimage Analysis (https://icy.bioimageanalysis.org/).

[2] = tested on: P. falciparum female gametocytes; assay: P. falciparum Dual Gamete Formation Assay (PfDGFA), female readout (Pfs25-positive female gametes); type: cell-based, Plasmodium falciparum NF54; details: for Selectivity ratio F: HepG2 Tox50 versus female IC50; for IC50: PfDGFA, 24 h incubation with gametocytes before induction, female gamete readout, read-out: Female IC50
Experimental: as §1, §2, §3

[3] = PfDGFA at 2µM, 24h preincubation with gametocytes prior to induction of gametogenesis, replicate R1
[4] = PfDGFA at 2µM, 24h preincubation with gametocytes prior to induction of gametogenesis, replicate R3
[5] = PfDGFA at 2µM, 24h preincubation with gametocytes prior to induction of gametogenesis, replicate R4
[6] = PfDGFA at 2µM, 24h preincubation, average of replicates
[7] = number of replicates with >50% inhibition in the male readout, 2µM
[8] = number of replicates with >50% inhibition in the female readout, 2µM
[9] = PfDGFA at 2µM, 24h preincubation with gametocytes, average of replicates
[10] = PfDGFA at 2µM, 24h preincubation with gametocytes, replicate R1
[11] = PfDGFA at 2µM, 24h preincubation with gametocytes, replicate R3
[12] = PfDGFA at 2µM, 24h preincubation with gametocytes, replicate R4
[13] = 2µM, 24h preincubation with gametocytes, average of replicates
[14] = 2µM, 24h preincubation with gametocytes, replicate R1
[15] = 2µM, 24h preincubation with gametocytes, replicate R3
[16] = 2µM, 24h preincubation with gametocytes, replicate R4
[17] = 2µM, 24h preincubation with gametocytes prior to induction of gametogenesis, average of replicates
[18] = 2µM, 24h preincubation with gametocytes prior to induction of gametogenesis, replicate R1
[19] = 2µM, 24h preincubation with gametocytes prior to induction of gametogenesis, replicate R4

Br.CC(C)(C)c1ccc(Cn2c(=N)n(CC(=O)c3ccc(-c4ccccc4)cc3)c3ccccc32)cc1 [TCMDC-124030]
% inhibition male (individual replicates) R1 [1, 3]: -15.4%
% inhibition male (individual replicates) R3 [1, 4]: -16.6%
% inhibition male (individual replicates) R4 [1, 5]: -3.3%
Average inhibition male (%) [1, 6]: -8.2%
% inhibition female (individual replicates) R1 [2, 3]: -3.8%
% inhibition female (individual replicates) R3 [2, 4]: -20.2%
% inhibition female (individual replicates) R4 [2, 5]: -0.7%
Average inhibition female (%) [2, 6]: -8.6%

O=C(Nc1ccc([N+](=O)[O-])cc1)c1nn(-c2ccccc2)cc1/N=C/c1cccc(O)c1 [TCMDC-124108]
% inhibition male (individual replicates) R1 [1, 3]: -5.9%
% inhibition male (individual replicates) R3 [1, 4]: -27.6%
% inhibition male (individual replicates) R4 [1, 5]: -9.8%
Average inhibition male (%) [1, 6]: -10.2%
% inhibition female (individual replicates) R1 [2, 3]: 7.8%
% inhibition female (individual replicates) R3 [2, 4]: -29.5%
% inhibition female (individual replicates) R4 [2, 5]: -3.2%
Average inhibition female (%) [2, 6]: -2.4%

c1ccc2[nH]c(CN(Cc3nc4ccccc4[nH]3)Cc3nc4ccccc4[nH]3)nc2c1 [TCMDC-124132]
Selectivity Ratio M [1]: 14.81
inhibition at 2 µM ([1]; Plasmodium falciparum, PfDGFA at 2µM, 24h preincubation with gametocytes, average of replicates, read-out: Average inhibition male (%)): 78.3%
inhibition at 2 µM ([1]; Plasmodium falciparum, PfDGFA at 2µM, 24h preincubation with gametocytes, replicate R1, read-out: % inhibition male (individual replicates) R1): 68.8%
inhibition at 2 µM ([1]; Plasmodium falciparum, PfDGFA at 2µM, 24h preincubation with gametocytes, replicate R2, read-out: % inhibition male (individual replicates) R2): 80.9%
inhibition at 2 µM ([1]; Plasmodium falciparum, PfDGFA at 2µM, 24h preincubation with gametocytes, replicate R4, read-out: % inhibition male (individual replicates) R4): 85.2%
IC50 ([1]; Plasmodium falciparum): 6.75 µM
HitlevelM [1, 7]: 3
Selectivity ratio F [2]: 10.00
inhibition at 2 µM ([2]; Plasmodium falciparum, PfDGFA at 2µM, 24h preincubation with gametocytes, average of replicates, read-out: Average inhibition female (%)): 5%
inhibition at 2 µM ([2]; Plasmodium falciparum, PfDGFA at 2µM, 24h preincubation with gametocytes, replicate R1, read-out: % inhibition female (individual replicates) R1): 1.1%
inhibition at 2 µM ([2]; Plasmodium falciparum, PfDGFA at 2µM, 24h preincubation with gametocytes, replicate R2, read-out: % inhibition female (individual replicates) R2): -7.6%
inhibition at 2 µM ([2]; Plasmodium falciparum, PfDGFA at 2µM, 24h preincubation with gametocytes, replicate R3, read-out: % inhibition female (individual replicates) R3): 23.9%
inhibition at 2 µM ([2]; Plasmodium falciparum, PfDGFA at 2µM, 24h preincubation with gametocytes, replicate R4, read-out: % inhibition female (individual replicates) R4): 2.5%
IC50 ([2]; Plasmodium falciparum): > 10 µM
HitlevelF [2, 8]: 0

COc1ccc(N2C(N)=NC(N)=NC2(C)C)cc1.Cl [TCMDC-124269]
% inhibition male (individual replicates) R1 [1, 3]: 22.5%
% inhibition male (individual replicates) R3 [1, 4]: 4.0%
% inhibition male (individual replicates) R4 [1, 5]: -9.1%
Average inhibition male (%) [1, 6]: 11.6%
% inhibition female (individual replicates) R1 [2, 3]: 13.5%
% inhibition female (individual replicates) R3 [2, 4]: -15.3%
% inhibition female (individual replicates) R4 [2, 5]: 10.3%
Average inhibition female (%) [2, 6]: 1.7%

CC(=NNC(=S)NCCc1ccccc1)c1ccccn1 [TCMDC-124270]
Average inhibition male (%) [1, 9]: 63.1%
% inhibition male (individual replicates) R1 [1, 10]: 70.1%
% inhibition male (individual replicates) R3 [1, 11]: 69.5%
% inhibition male (individual replicates) R4 [1, 12]: 18.9%
IC50 [1]: 0.64 µM
HitlevelM [1, 7]: 3
Average inhibition female (%) [2, 9]: 36.2%
% inhibition female (individual replicates) R1 [2, 10]: 25.2%
% inhibition female (individual replicates) R3 [2, 11]: 20.9%
% inhibition female (individual replicates) R4 [2, 12]: 55.8%
IC50 [2]: 0.53 µM
HitlevelF [2, 8]: 1

CC(C)(c1ccccc1)c1ccc(O)c(CN2CCOCC2)c1 [TCMDC-124276]
% inhibition male (individual replicates) R1 [1, 3]: 1.1%
% inhibition male (individual replicates) R4 [1, 5]: -1.8%
Average inhibition male (%) [1, 6]: 10.2%
% inhibition female (individual replicates) R1 [2, 3]: 0.5%
% inhibition female (individual replicates) R3 [2, 4]: 8.1%
% inhibition female (individual replicates) R4 [2, 5]: -2.3%
Average inhibition female (%) [2, 6]: -2.0%

CC(=NNC(=S)Nc1ccccc1Cl)c1ccccn1 [TCMDC-124278]
Average inhibition male (%) [1, 13]: 101.3%
% inhibition male (individual replicates) R1 [1, 14]: 101.8%
% inhibition male (individual replicates) R3 [1, 15]: 99.8%
% inhibition male (individual replicates) R4 [1, 16]: 103.6%
IC50 [1]: 0.11 µM
Average inhibition female (%) [2, 13]: 61.5%
% inhibition female (individual replicates) R1 [2, 14]: 40.0%
% inhibition female (individual replicates) R3 [2, 15]: 55.6%
% inhibition female (individual replicates) R4 [2, 16]: 74.7%
IC50 [2]: 0.3 µM

CCCCOc1ccc(N2C(N)=NC(N)=NC2(C)C)cc1.Cl [TCMDC-124279]
% inhibition male (individual replicates) R1 [1, 3]: -7.3%
% inhibition male (individual replicates) R3 [1, 4]: -37.1%
% inhibition male (individual replicates) R4 [1, 5]: -28.5%
Average inhibition male (%) [1, 6]: -17.0%
% inhibition female (individual replicates) R1 [2, 3]: 2.1%
% inhibition female (individual replicates) R3 [2, 4]: -37.2%
% inhibition female (individual replicates) R4 [2, 5]: 21.1%
Average inhibition female (%) [2, 6]: -3.8%

CCOC(=O)c1cc(C(=O)OC)c2ccccn12 [TCMDC-124299]
% inhibition male (individual replicates) R1 [1, 3]: 15.7%
% inhibition male (individual replicates) R3 [1, 4]: -23.4%
% inhibition male (individual replicates) R4 [1, 5]: -23.1%
Average inhibition male (%) [1, 6]: -9.0%
% inhibition female (individual replicates) R1 [2, 3]: 6.3%
% inhibition female (individual replicates) R3 [2, 4]: -21.8%
% inhibition female (individual replicates) R4 [2, 5]: 0.07%
Average inhibition female (%) [2, 6]: -2.7%

[O-][S+]1c2ccccc2Sc2ccccc21 [TCMDC-124300]
% inhibition male (individual replicates) R1 [1, 3]: 13.3%
% inhibition male (individual replicates) R3 [1, 4]: 4.0%
% inhibition male (individual replicates) R4 [1, 5]: -37.1%
Average inhibition male (%) [1, 6]: -9.5%
% inhibition female (individual replicates) R1 [2, 3]: 9.4%
% inhibition female (individual replicates) R3 [2, 4]: -8.0%
% inhibition female (individual replicates) R4 [2, 5]: -1.0%
Average inhibition female (%) [2, 6]: -3.0%

CCCCNS(=O)(=O)c1ccc(NC(=O)c2cc([N+](=O)[O-])ccc2Cl)cc1 [TCMDC-124345]
Selectivity Ratio M [1]: 267.48
inhibition at 2 µM ([1]; Plasmodium falciparum, 2µM, 24h preincubation with gametocytes, average of replicates, read-out: Average inhibition male (%)): 100%
inhibition at 2 µM ([1]; Plasmodium falciparum, 2µM, 24h preincubation with gametocytes, replicate R1, read-out: % inhibition male (individual replicates) R1): 101%
inhibition at 2 µM ([1]; Plasmodium falciparum, 2µM, 24h preincubation with gametocytes, replicate R2, read-out: % inhibition male (individual replicates) R2): 102%
inhibition at 2 µM ([1]; Plasmodium falciparum, 2µM, 24h preincubation with gametocytes, replicate R3, read-out: % inhibition male (individual replicates) R3): 100%
inhibition at 2 µM ([1]; Plasmodium falciparum, 2µM, 24h preincubation with gametocytes, replicate R4, read-out: % inhibition male (individual replicates) R4): 98.2%
IC50 ([1]; Plasmodium falciparum): 0.37 µM
Selectivity ratio F [2]: 13.22
inhibition at 2 µM ([2]; Plasmodium falciparum, 2µM, 24h preincubation with gametocytes, average of replicates, read-out: Average inhibition female (%)): 20%
inhibition at 2 µM ([2]; Plasmodium falciparum, 2µM, 24h preincubation with gametocytes, replicate R1, read-out: % inhibition female (individual replicates) R1): 27.9%
inhibition at 2 µM ([2]; Plasmodium falciparum, 2µM, 24h preincubation with gametocytes, replicate R2, read-out: % inhibition female (individual replicates) R2): 30.3%
inhibition at 2 µM ([2]; Plasmodium falciparum, 2µM, 24h preincubation with gametocytes, replicate R3, read-out: % inhibition female (individual replicates) R3): 6.6%
inhibition at 2 µM ([2]; Plasmodium falciparum, 2µM, 24h preincubation with gametocytes, replicate R4, read-out: % inhibition female (individual replicates) R4): 15%
IC50 ([2]; Plasmodium falciparum): 7.56 µM

CC(=O)Nc1ccc(Nc2c3ccccc3nc3ccccc23)cc1 [TCMDC-124356]
Average inhibition male (%) [1, 17]: 30.9%
% inhibition male (individual replicates) R1 [1, 18]: 50.9%
% inhibition male (individual replicates) R4 [1, 19]: -15.9%
HitlevelM ([1]; 2µM, 24h preincubation, hits selected on >50% inhibition in the male readout across replicates): 2
Activity ([1]; PfDGFA at 2µM, 24h preincubation, hit = >50% inhibition in male or female readout in at least 3 replicates, 0 = no class assigned): 0
Average inhibition female (%) [2, 17]: 14.4%
% inhibition female (individual replicates) R1 [2, 18]: 47.3%
% inhibition female (individual replicates) R3 ([2]; 2µM, 24h preincubation with gametocytes prior to induction of gametogenesis, replicate R3): 8.8%
% inhibition female (individual replicates) R4 [2, 19]: 12.0%
HitlevelF ([2]; 2µM, 24h preincubation, hits selected on >50% inhibition in the female readout across replicates): 0
